In PubChem BioAssay (NCI):
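Five compound concentrations were applied to cells in 96-well plates for 48 hours; endpoints were derived by simple linear interpolation of the resulting dose-response curve. At the GI50, growth is halved. TGI marks complete inhibition of growth.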

Assays:
Assay in all cases: NCI-60 cell line screen, 48 h
SN12C renal = tested on: SN12C renal
HOP-92 NSCLC = tested on: HOP-92 NSCLC
OVCAR-4 ovarian = tested on: OVCAR-4 ovarian
T-47D breast = tested on: T-47D breast
SF-268 CNS = tested on: SF-268 CNS
SNB-19 CNS = tested on: SNB-19 CNS
LOX IMVI melanoma = tested on: LOX IMVI melanoma
MCF7 breast = tested on: MCF7 breast
RXF 393 renal = tested on: RXF 393 renal
DU-145 prostate = tested on: DU-145 prostate
SF-539 CNS = tested on: SF-539 CNS
M14 melanoma = tested on: M14 melanoma
SK-OV-3 ovarian = tested on: SK-OV-3 ovarian
K-562 leukemia = tested on: K-562 leukemia
KM12 colon = tested on: KM12 colon
NCI-H226 lung = tested on: NCI-H226 lung
UO-31 renal = tested on: UO-31 renal
U251 CNS = tested on: U251 CNS
HL-60(TB) leukemia = tested on: HL-60(TB) leukemia
HT29 colon = tested on: HT29 colon
EKVX NSCLC = tested on: EKVX NSCLC
NCI/ADR-RES ovarian = tested on: NCI/ADR-RES ovarian
SW-620 colon = tested on: SW-620 colon
ACHN renal = tested on: ACHN renal
SR leukemia = tested on: SR leukemia
SK-MEL-28 melanoma = tested on: SK-MEL-28 melanoma
786-0 renal = tested on: 786-0 renal
SK-MEL-2 melanoma = tested on: SK-MEL-2 melanoma
MALME-3M melanoma = tested on: MALME-3M melanoma
IGROV1 ovarian = tested on: IGROV1 ovarian
RPMI-8226 leukemia = tested on: RPMI-8226 leukemia
SK-MEL-5 melanoma = tested on: SK-MEL-5 melanoma
MDA-N = tested on: MDA-N
UACC-257 melanoma = tested on: UACC-257 melanoma
HOP-62 NSCLC = tested on: HOP-62 NSCLC
A549 NSCLC = tested on: A549 NSCLC
HCT-116 colon = tested on: HCT-116 colon
NCI-H522 lung = tested on: NCI-H522 lung
SF-295 CNS = tested on: SF-295 CNS
OVCAR-8 ovarian = tested on: OVCAR-8 ovarian
MDA-MB-231 breast = tested on: MDA-MB-231 breast
HS 578T breast = tested on: HS 578T breast
UACC-62 melanoma = tested on: UACC-62 melanoma
MDA-MB-435 = tested on: MDA-MB-435
SNB-75 CNS = tested on: SNB-75 CNS
TK-10 renal = tested on: TK-10 renal
OVCAR-3 ovarian = tested on: OVCAR-3 ovarian
CAKI-1 renal = tested on: CAKI-1 renal
NCI-H23 lung = tested on: NCI-H23 lung
BT-549 breast = tested on: BT-549 breast
NCI-H460 lung = tested on: NCI-H460 lung
CCRF-CEM leukemia = tested on: CCRF-CEM leukemia
HCC-2998 colon = tested on: HCC-2998 colon
PC-3 prostate = tested on: PC-3 prostate
MOLT-4 leukemia = tested on: MOLT-4 leukemia
HCT-15 colon = tested on: HCT-15 colon
OVCAR-5 ovarian = tested on: OVCAR-5 ovarian
COLO 205 colon = tested on: COLO 205 colon
A498 renal = tested on: A498 renal

For `Cn1c2ccccc2c(=NNc2ccc(C(=O)O)cc2)c2ccccc21`, the TGI (SN12C renal) was 75.3 µM, the TGI (HOP-92 NSCLC) was 57.7 µM and the TGI (OVCAR-4 ovarian) was 49 µM. For the same molecule, the TGI (T-47D breast) was 58.9 µM, the TGI (SF-268 CNS) was 48 µM and the TGI (SNB-19 CNS) was over 100 µM. The TGI (LOX IMVI melanoma) was 24.1 µM, the TGI (MCF7 breast) was 26.5 µM and the TGI (RXF 393 renal) was 38 µM. For the same molecule, the TGI (DU-145 prostate) was 58 µM, the TGI (SF-539 CNS) was 49.9 µM and the TGI (M14 melanoma) was 31.8 µM. The TGI (SK-OV-3 ovarian) was 56.7 µM, the TGI (K-562 leukemia) was 23.3 µM and the TGI (KM12 colon) was 50.3 µM. For the same molecule, the TGI (NCI-H226 lung) was 54 µM, the TGI (UO-31 renal) was 46.9 µM and the TGI (U251 CNS) was 41 µM. The TGI (HL-60(TB) leukemia) was 48.6 µM, the TGI (HT29 colon) was 32.3 µM and the TGI (EKVX NSCLC) was 32.2 µM. It also gave a TGI (NCI/ADR-RES ovarian) of 57.9 µM, a TGI (SW-620 colon) of 65.3 µM and a TGI (ACHN renal) of 45.6 µM. It also gave a TGI (SR leukemia) of 42.7 µM, a TGI (SK-MEL-28 melanoma) of 60.7 µM and a TGI (786-0 renal) of 84.4 µM. It also gave a TGI (SK-MEL-2 melanoma) of 40.7 µM, a TGI (MALME-3M melanoma) of 40.8 µM and a TGI (IGROV1 ovarian) of 95 µM. For the same molecule, the TGI (RPMI-8226 leukemia) was 53.1 µM, the TGI (SK-MEL-5 melanoma) was 32.7 µM and the TGI (MDA-N) was 33.7 µM. It also gave a TGI (UACC-257 melanoma) of 57 µM, a TGI (HOP-62 NSCLC) of 56.2 µM and a TGI (A549 NSCLC) of 38.7 µM. It also gave a TGI (HCT-116 colon) of 34.5 µM, a TGI (NCI-H522 lung) of 27.2 µM and a TGI (SF-295 CNS) of 78.4 µM. For the same molecule, the TGI (OVCAR-8 ovarian) was 33.5 µM, the TGI (MDA-MB-231 breast) was 50.1 µM and the TGI (HS 578T breast) was 55.9 µM. The TGI (UACC-62 melanoma) was 44.1 µM, the TGI (MDA-MB-435) was 34.3 µM and the TGI (SNB-75 CNS) was 56.5 µM. For the same molecule, the TGI (TK-10 renal) was 62.4 µM, the TGI (OVCAR-3 ovarian) was 49.6 µM and the TGI (CAKI-1 renal) was 63.4 µM. The TGI (NCI-H23 lung) was 57.8 µM, the TGI (BT-549 breast) was 74.9 µM and the TGI (NCI-H460 lung) was 43.5 µM. It also gave a TGI (CCRF-CEM leukemia) of 40.5 µM, a TGI (HCC-2998 colon) of 24.9 µM and a TGI (PC-3 prostate) of 43.9 µM. The TGI (MOLT-4 leukemia) was 57.4 µM, the TGI (HCT-15 colon) was 38.9 µM and the TGI (OVCAR-5 ovarian) was 48 µM. It also gave a TGI (COLO 205 colon) of 32.3 µM.

`COC(=O)c1cc(C#Cc2cc(OC)ccc2OC)ccc1OC` showed a GI50 (SN12C renal) of 37.9 µM, a TGI (SN12C renal) of over 100 µM and a TGI (HOP-92 NSCLC) of 85.9 µM. For the same molecule, the TGI (OVCAR-4 ovarian) was over 100 µM, the TGI (T-47D breast) was 34.5 µM and the TGI (SF-268 CNS) was over 100 µM. For the same molecule, the TGI (SNB-19 CNS) was over 100 µM, the TGI (LOX IMVI melanoma) was over 100 µM and the TGI (MCF7 breast) was over 100 µM. The TGI (RXF 393 renal) was 84.1 µM, the GI50 (DU-145 prostate) was 43.6 µM and the TGI (DU-145 prostate) was over 100 µM. For the same molecule, the GI50 (SF-539 CNS) was 81.1 µM, the TGI (SF-539 CNS) was over 100 µM and the TGI (M14 melanoma) was over 100 µM. The TGI (SK-OV-3 ovarian) was over 100 µM, the TGI (K-562 leukemia) was over 100 µM and the TGI (KM12 colon) was over 100 µM. It also gave a TGI (NCI-H226 lung) of over 100 µM, a TGI (UO-31 renal) of over 100 µM and a TGI (U251 CNS) of over 100 µM. It also gave a TGI (HL-60(TB) leukemia) of over 100 µM, a TGI (HT29 colon) of over 100 µM and a TGI (EKVX NSCLC) of over 100 µM. The TGI (NCI/ADR-RES ovarian) was over 100 µM, the TGI (SW-620 colon) was over 100 µM and the TGI (ACHN renal) was over 100 µM. It also gave a TGI (SR leukemia) of over 100 µM, a TGI (SK-MEL-28 melanoma) of over 100 µM and a TGI (786-0 renal) of over 100 µM. It also gave a TGI (SK-MEL-2 melanoma) of over 100 µM, a TGI (MALME-3M melanoma) of over 100 µM and a TGI (IGROV1 ovarian) of over 100 µM. It also gave a TGI (RPMI-8226 leukemia) of 41.3 µM, a TGI (SK-MEL-5 melanoma) of 53.1 µM and a TGI (MDA-N) of over 100 µM. For the same molecule, the TGI (UACC-257 melanoma) was over 100 µM, the TGI (A549 NSCLC) was over 100 µM and the GI50 (HCT-116 colon) was 37.7 µM. It also gave a TGI (HCT-116 colon) of over 100 µM, a TGI (NCI-H522 lung) of over 100 µM and a TGI (OVCAR-8 ovarian) of over 100 µM. It also gave a TGI (MDA-MB-231 breast) of over 100 µM, a TGI (HS 578T breast) of over 100 µM and a GI50 (UACC-62 melanoma) of 29.3 µM. For the same molecule, the TGI (UACC-62 melanoma) was over 100 µM, the TGI (MDA-MB-435) was over 100 µM and the TGI (SNB-75 CNS) was over 100 µM. For the same molecule, the TGI (TK-10 renal) was over 100 µM, the GI50 (OVCAR-3 ovarian) was 13.6 µM and the TGI (OVCAR-3 ovarian) was 77.6 µM. It also gave a TGI (CAKI-1 renal) of over 100 µM, a TGI (NCI-H23 lung) of over 100 µM and a TGI (BT-549 breast) of over 100 µM. It also gave a TGI (NCI-H460 lung) of over 100 µM, a GI50 (CCRF-CEM leukemia) of 36.8 µM and a TGI (CCRF-CEM leukemia) of over 100 µM. For the same molecule, the TGI (HCC-2998 colon) was over 100 µM, the TGI (PC-3 prostate) was over 100 µM and the TGI (MOLT-4 leukemia) was 70 µM. For the same molecule, the TGI (HCT-15 colon) was over 100 µM, the TGI (OVCAR-5 ovarian) was over 100 µM and the TGI (COLO 205 colon) was 52.3 µM.

Molecule `C=C1C(=O)OC2C1CC(O)/C(C)=C\CCC1(C)OC21` (stereo unspecified) has a TGI (HOP-92 NSCLC) of over 100 µM, a TGI (OVCAR-4 ovarian) of over 100 µM and a TGI (T-47D breast) of over 100 µM. The TGI (SF-268 CNS) was 86.6 µM, the TGI (SNB-19 CNS) was over 100 µM and the TGI (LOX IMVI melanoma) was 78.7 µM. For the same molecule, the TGI (MCF7 breast) was 86.1 µM, the TGI (RXF 393 renal) was 31.8 µM and the TGI (DU-145 prostate) was over 100 µM. It also gave a TGI (SF-539 CNS) of over 100 µM, a TGI (M14 melanoma) of 64.4 µM and a TGI (SK-OV-3 ovarian) of over 100 µM. The TGI (KM12 colon) was over 100 µM, the TGI (UO-31 renal) was 66.6 µM and the TGI (U251 CNS) was 54.8 µM. The TGI (HL-60(TB) leukemia) was 83.8 µM, the TGI (HT29 colon) was over 100 µM and the TGI (EKVX NSCLC) was over 100 µM. The TGI (NCI/ADR-RES ovarian) was 62.3 µM, the TGI (SW-620 colon) was over 100 µM and the TGI (ACHN renal) was over 100 µM. It also gave a TGI (SR leukemia) of 61.2 µM, a TGI (SK-MEL-28 melanoma) of 91.1 µM and a TGI (786-0 renal) of over 100 µM. The TGI (SK-MEL-2 melanoma) was 44.5 µM, the TGI (MALME-3M melanoma) was 45.4 µM and the TGI (IGROV1 ovarian) was over 100 µM. The TGI (RPMI-8226 leukemia) was 65.4 µM, the TGI (SK-MEL-5 melanoma) was 47.5 µM and the TGI (MDA-N) was 36.2 µM. The TGI (UACC-257 melanoma) was over 100 µM, the TGI (HOP-62 NSCLC) was 49.3 µM and the TGI (A549 NSCLC) was over 100 µM. The TGI (HCT-116 colon) was over 100 µM, the TGI (NCI-H522 lung) was 33 µM and the TGI (SF-295 CNS) was over 100 µM. It also gave a TGI (OVCAR-8 ovarian) of over 100 µM, a TGI (MDA-MB-231 breast) of 35.4 µM and a TGI (HS 578T breast) of 67.9 µM. The TGI (A498 renal) was over 100 µM, the TGI (UACC-62 melanoma) was 61.1 µM and the TGI (MDA-MB-435) was 89.6 µM. It also gave a TGI (SNB-75 CNS) of over 100 µM, a TGI (TK-10 renal) of over 100 µM and a TGI (OVCAR-3 ovarian) of 34.1 µM. The TGI (NCI-H23 lung) was over 100 µM, the TGI (BT-549 breast) was 43.2 µM and the TGI (NCI-H460 lung) was over 100 µM. The TGI (CCRF-CEM leukemia) was over 100 µM, the TGI (HCC-2998 colon) was 79.9 µM and the TGI (PC-3 prostate) was over 100 µM. For the same molecule, the TGI (MOLT-4 leukemia) was 79.3 µM, the TGI (HCT-15 colon) was 33.5 µM and the TGI (OVCAR-5 ovarian) was 75 µM. It also gave a TGI (COLO 205 colon) of 89.9 µM.
